Test results reported in patent US20260232670A1, “TYRO3 SELECTIVE INHIBITORS AND USES THEREOF” (THE UNIVERSITY OF NORTH CAROLINA AT CHAPEL HILL, priority 2023, published 2026).

Columns and labels:
Assay type in all cases: biochemical
TYRO3 = target: T1, TYRO3 (Homo sapiens, UniProt Q06418); assay: Microfluidic capillary electrophoresis (MCE) kinase activity assay, Tyro3
T1 sequence (Q06418 41-890): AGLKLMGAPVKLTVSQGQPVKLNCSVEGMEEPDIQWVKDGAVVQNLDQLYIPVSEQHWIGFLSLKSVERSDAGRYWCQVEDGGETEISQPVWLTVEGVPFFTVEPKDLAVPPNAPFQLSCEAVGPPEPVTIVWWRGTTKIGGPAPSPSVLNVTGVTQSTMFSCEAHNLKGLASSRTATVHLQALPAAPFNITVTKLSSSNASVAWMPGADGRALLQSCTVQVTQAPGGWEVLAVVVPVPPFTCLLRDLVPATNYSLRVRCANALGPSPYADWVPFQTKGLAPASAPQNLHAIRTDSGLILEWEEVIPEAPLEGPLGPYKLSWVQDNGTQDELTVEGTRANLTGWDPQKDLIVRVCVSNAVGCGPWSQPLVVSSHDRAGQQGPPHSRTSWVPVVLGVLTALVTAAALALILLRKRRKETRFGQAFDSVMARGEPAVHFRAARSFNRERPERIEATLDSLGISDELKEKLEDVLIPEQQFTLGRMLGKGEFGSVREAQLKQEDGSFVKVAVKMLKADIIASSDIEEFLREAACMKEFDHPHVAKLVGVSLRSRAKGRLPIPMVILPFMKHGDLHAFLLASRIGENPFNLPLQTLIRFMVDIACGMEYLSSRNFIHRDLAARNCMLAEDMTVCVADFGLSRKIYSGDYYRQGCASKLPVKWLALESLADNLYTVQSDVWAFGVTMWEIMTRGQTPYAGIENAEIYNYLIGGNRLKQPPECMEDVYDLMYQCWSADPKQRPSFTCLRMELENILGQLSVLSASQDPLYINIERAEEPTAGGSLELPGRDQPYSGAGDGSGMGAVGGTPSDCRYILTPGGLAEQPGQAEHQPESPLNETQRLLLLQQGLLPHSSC

MERTK = target: T2, MERTK (Homo sapiens, UniProt Q12866); assay: Microfluidic capillary electrophoresis (MCE) kinase activity assay, Mer
T2 sequence (Q12866 21-999): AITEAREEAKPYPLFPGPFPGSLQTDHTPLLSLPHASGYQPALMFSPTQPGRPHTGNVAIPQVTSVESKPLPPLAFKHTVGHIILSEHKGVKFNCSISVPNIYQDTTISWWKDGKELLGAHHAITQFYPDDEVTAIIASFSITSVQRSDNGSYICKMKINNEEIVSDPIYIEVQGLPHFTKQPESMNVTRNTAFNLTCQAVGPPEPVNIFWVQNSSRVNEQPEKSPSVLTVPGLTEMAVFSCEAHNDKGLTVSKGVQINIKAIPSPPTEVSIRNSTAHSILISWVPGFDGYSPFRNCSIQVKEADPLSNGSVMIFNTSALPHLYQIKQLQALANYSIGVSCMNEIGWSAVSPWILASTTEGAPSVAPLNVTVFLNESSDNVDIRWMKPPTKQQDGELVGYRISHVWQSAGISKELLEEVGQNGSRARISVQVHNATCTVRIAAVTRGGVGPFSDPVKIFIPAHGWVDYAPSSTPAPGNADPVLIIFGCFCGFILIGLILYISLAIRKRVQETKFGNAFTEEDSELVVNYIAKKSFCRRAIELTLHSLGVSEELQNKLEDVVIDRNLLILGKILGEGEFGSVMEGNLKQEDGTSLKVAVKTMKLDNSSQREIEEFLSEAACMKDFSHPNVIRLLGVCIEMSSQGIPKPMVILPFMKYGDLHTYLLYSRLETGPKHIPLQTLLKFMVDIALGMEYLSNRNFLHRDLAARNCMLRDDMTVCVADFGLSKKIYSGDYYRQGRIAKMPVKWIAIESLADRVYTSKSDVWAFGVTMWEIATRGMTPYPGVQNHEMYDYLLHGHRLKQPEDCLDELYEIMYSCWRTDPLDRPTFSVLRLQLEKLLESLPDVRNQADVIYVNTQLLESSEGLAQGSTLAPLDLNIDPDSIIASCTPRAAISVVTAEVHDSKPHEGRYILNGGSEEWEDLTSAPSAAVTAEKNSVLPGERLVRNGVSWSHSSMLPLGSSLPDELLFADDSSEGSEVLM

AXL = target: T3, AXL (Homo sapiens, UniProt P30530); assay: Microfluidic capillary electrophoresis (MCE) kinase activity assay, Axl; settings: Table 2; MCE assay, ATP at Km
T3 sequence (P30530 26-894): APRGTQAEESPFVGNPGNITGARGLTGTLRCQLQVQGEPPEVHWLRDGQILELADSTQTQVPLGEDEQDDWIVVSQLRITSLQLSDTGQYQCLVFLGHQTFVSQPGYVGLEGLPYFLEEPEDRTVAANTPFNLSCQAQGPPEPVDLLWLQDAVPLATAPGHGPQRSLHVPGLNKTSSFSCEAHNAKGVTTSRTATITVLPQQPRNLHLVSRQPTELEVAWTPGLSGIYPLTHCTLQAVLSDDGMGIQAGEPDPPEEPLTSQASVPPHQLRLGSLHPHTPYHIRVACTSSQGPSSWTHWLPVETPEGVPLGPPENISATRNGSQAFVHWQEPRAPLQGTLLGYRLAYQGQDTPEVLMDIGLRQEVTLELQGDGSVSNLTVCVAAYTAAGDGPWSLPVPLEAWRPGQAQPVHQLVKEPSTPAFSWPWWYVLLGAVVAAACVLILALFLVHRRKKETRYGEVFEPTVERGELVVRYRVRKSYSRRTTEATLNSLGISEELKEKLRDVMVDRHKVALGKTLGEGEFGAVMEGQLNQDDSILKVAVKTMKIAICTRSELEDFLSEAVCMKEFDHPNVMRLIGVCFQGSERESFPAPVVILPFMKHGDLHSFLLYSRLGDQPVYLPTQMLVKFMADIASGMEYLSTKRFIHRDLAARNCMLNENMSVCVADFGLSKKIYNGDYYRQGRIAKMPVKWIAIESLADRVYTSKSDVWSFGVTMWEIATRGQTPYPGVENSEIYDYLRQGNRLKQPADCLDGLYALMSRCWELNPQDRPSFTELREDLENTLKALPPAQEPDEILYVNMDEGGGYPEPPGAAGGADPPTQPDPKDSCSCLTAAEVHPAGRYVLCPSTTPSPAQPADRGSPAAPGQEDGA

IC50 (TYRO3; Table 2, MCE assay, ATP at Km)	IC50 (MERTK; Table 2, MCE assay, ATP at Km)	IC50 (AXL)	Compound	also measured
< 10 nM	10 to 100 nM	–	CN1CCN(Cc2ccc(-c3cn([C@H]4CC[C@H](O)CC4)c4nc(Nc5cc(Cl)cc(C(F)(F)F)c5)ncc34)cc2)CC1 [Compound 148]	–
< 10 nM	< 10 nM	–	CN1CCN(Cc2ccc(-c3cn([C@H]4CC[C@H](O)CC4)c4nc(Nc5cc(F)cc(C(F)(F)F)c5)ncc34)cc2)CC1 [Compound 149]	–
< 10 nM	< 10 nM	–	CC1CCN(Cc2ccc(-c3cn([C@H]4CC[C@H](O)CC4)c4nc(Nc5cc(F)cc(Cl)c5)ncc34)cc2)CC1 [Compound 151]	–
< 10 nM	< 10 nM	–	CN1CCN(Cc2ccc(-c3cn([C@H]4CC[C@H](O)CC4)c4nc(Nc5ccsc5)ncc34)cc2)CC1 [Compound 174]	–
< 10 nM	< 10 nM	–	CN1CCN(Cc2ccc(-c3cn([C@H]4CC[C@H](O)CC4)c4nc(Nc5cncc(Cl)c5)ncc34)cc2)CC1 [Compound 175]	–

Further lines, the molecule ahead of its results:

Compound	IC50 (TYRO3; Table 2, MCE assay, ATP at Km)	IC50 (MERTK; Table 2, MCE assay, ATP at Km)	IC50 (AXL)	also measured
CN1CCN(Cc2ccc(-c3cn([C@H]4CC[C@H](O)CC4)c4nc(Nc5cc(F)cc(Cl)c5)ncc34)cc2)CC1 [Compound 7]	< 10 nM	< 10 nM	10 to 100 nM	–
CN1CCN(Cc2ccc(-c3cn([C@H]4CC[C@H](O)CC4)c4nc(Nc5cc(Cl)c(F)c(Cl)c5)ncc34)cc2)CC1 [Compound 8]	< 10 nM	10 to 100 nM	10 to 100 nM	–
O[C@H]1CC[C@H](n2cc(-c3ccc(CN4CCC(F)(F)CC4)cc3)c3cnc(Nc4cc(C(F)(F)F)cc(C(F)(F)F)c4)nc32)CC1 [Compound 10]	10 to 100 nM	100 to 1000 nM	100 to 1000 nM	–
O[C@H]1CC[C@H](n2cc(-c3ccc(CNCCN4CCOCC4)cc3)c3cnc(Nc4cc(C(F)(F)F)cc(C(F)(F)F)c4)nc32)CC1 [Compound 19]	< 10 nM	100 to 1000 nM	100 to 1000 nM	–
CN(C)C1CCN(Cc2ccc(-c3cn([C@H]4CC[C@H](O)CC4)c4nc(Nc5cc(F)cc(Cl)c5)ncc34)cc2)CC1 [Compound 22]	< 10 nM	< 10 nM	10 to 100 nM	–
O[C@H]1CC[C@H](n2cc(-c3ccc(CN4CCC(F)(F)CC4)cc3)c3cnc(Nc4cc(F)cc(Cl)c4)nc32)CC1 [Compound 23]	< 10 nM	10 to 100 nM	100 to 1000 nM	–
CN1CCCN(Cc2ccc(-c3cn([C@H]4CC[C@H](O)CC4)c4nc(Nc5cc(F)cc(Cl)c5)ncc34)cc2)CC1 [Compound 24]	< 10 nM	< 10 nM	10 to 100 nM	–
O[C@H]1CC[C@H](n2cc(-c3ccc(CN4CCSCC4)cc3)c3cnc(Nc4cc(F)cc(Cl)c4)nc32)CC1 [Compound 25]	< 10 nM	100 to 1000 nM	100 to 1000 nM	–
CC(C)(C)OC(=O)N1CCN(Cc2ccc(-c3cn([C@H]4CC[C@H](O)CC4)c4nc(Nc5cc(C(F)(F)F)cc(C(F)(F)F)c5)ncc34)cc2)CC1 [Compound 26]	10 to 100 nM	1000 to 30000 nM	1000 to 30000 nM	–
O[C@H]1CC[C@H](n2cc(-c3ccc(CN4CCNCC4)cc3)c3cnc(Nc4cc(C(F)(F)F)cc(C(F)(F)F)c4)nc32)CC1 [Compound 27]	< 10 nM	100 to 1000 nM	100 to 1000 nM	–
CN1CCC(Nc2ccc(-c3cn([C@H]4CC[C@H](O)CC4)c4nc(Nc5cc(F)cc(Cl)c5)ncc34)cc2)CC1 [Compound 56]	–	–	–	IC50 (TYRO3; Table 8): < 10 nM; IC50 (MERTK; Table 8): < 10 nM
CN1CCN(S(=O)(=O)c2ccc(-c3cn([C@H]4CC[C@H](O)CC4)c4nc(Nc5cc(F)cc(Cl)c5)ncc34)cc2)CC1 [Compound 63]	–	–	–	IC50 (TYRO3; Table 9): < 10 nM; IC50 (MERTK; Table 9): < 10 nM
CN1CCN(Cc2ccc(-c3cn([C@H]4CC[C@H](O)CC4)c4nc(Nc5cccc(C(F)(F)F)c5)ncc34)cc2)CC1 [Compound 147]	< 10 nM	< 10 nM	–	–
CN1CCN(Cc2ccc(-c3cn(C4CCOCC4)c4nc(Nc5cc(F)cc(Cl)c5)ncc34)cc2)CC1 [Compound 160]	–	–	–	IC50 (TYRO3; Table 10): < 10 nM; IC50 (MERTK; Table 10): < 10 nM
CN1CCN(Cc2ccc(-c3cn([C@H]4CC[C@H](NC(=O)OC(C)(C)C)CC4)c4nc(Nc5cc(C(F)(F)F)cc(C(F)(F)F)c5)ncc34)cc2)CC1 [Compound 161]	–	–	–	IC50 (TYRO3; Table 10): 10 to 100 nM
CN1CCN(Cc2ccc(-c3cn([C@H]4CC[C@H](NC(=O)OC(C)(C)C)CC4)c4nc(Nc5cc(F)cc(Cl)c5)ncc34)cc2)CC1 [Compound 163]	–	–	–	IC50 (TYRO3; Table 10): 10 to 100 nM; IC50 (MERTK; Table 10): 100 to 1000 nM
CN1CCN(Cc2ccc(-c3cn([C@H]4CC[C@H](N)CC4)c4nc(Nc5cc(F)cc(Cl)c5)ncc34)cc2)CC1 [Compound 164]	–	–	–	IC50 (TYRO3; Table 10): < 10 nM; IC50 (MERTK; Table 10): < 10 nM
CN1CCN(Cc2ccc(-c3cn(C4CC(CO)(CO)C4)c4nc(Nc5cc(C(F)(F)F)cc(C(F)(F)F)c5)ncc34)cc2)CC1 [Compound 165]	–	–	–	IC50 (TYRO3; Table 10): < 10 nM; IC50 (MERTK; Table 10): 1000 to 30000 nM
CN1CCN(Cc2ccc(-c3cc(C4CCC5(CC4)OCCO5)n4nc(Nc5cc(F)cc(Cl)c5)ncc34)cc2)CC1 [Compound 170, N-(3-chloro-5-fluorophenyl)-5-(4-((4-methylpiperazin-1-yl)methyl)phenyl)-7-(1,4-dioxaspiro[4.5]decan-8-yl)pyrrolo[2,1-f][1,2,4]triazin-2-amine]	–	–	–	IC50 (TYRO3; Table 11): < 10 nM; IC50 (MERTK; Table 11): 10 to 100 nM
CN1CCN(Cc2ccc(-c3cc(C4CCC(=O)CC4)n4nc(Nc5cc(F)cc(Cl)c5)ncc34)cc2)CC1 [Compound 171, 4-(2-((3-chloro-5-fluorophenyl)amino)-5-(4-((4-methylpiperazin-1-yl)methyl)phenyl)pyrrolo[2,1-f][1,2,4]triazin-7-yl)cyclohexan-1-one]	–	–	–	IC50 (TYRO3; Table 11): < 10 nM; IC50 (MERTK; Table 11): 10 to 100 nM
CN1CCN(Cc2ccc(-c3cn([C@H]4CC[C@H](O)CC4)c4nc(Nc5cc(F)cc(Cl)c5)ncc34)cn2)CC1 [Compound 172]	–	–	–	IC50 (TYRO3; Table 12): < 10 nM; IC50 (MERTK; Table 12): < 10 nM
CN1CCN(Cc2ccc(-c3cn([C@H]4CC[C@H](O)CC4)c4nc(Nc5cc(C(F)(F)F)cc(C(F)(F)F)c5)ncc34)cn2)CC1 [Compound 173]	–	–	–	IC50 (TYRO3; Table 12): < 10 nM; IC50 (MERTK; Table 12): 100 to 1000 nM
